{"source": "patent US7001756B1", "about": "“Microorganism strain of GM-020 of Lactobacillus rhamnosus and its use for treating obesity” (GenMont Biotech Inc., priority 2004, dated 2006)", "key": {"[1]": {"assay": "Obesity model: liver concentration of fat metabolites", "assay_type": "in vivo, ICR mice", "conditions": "right lobe of liver; 4 weeks treatment; GM-020 10^9 CFU/mL or PPA 4.875 mg each time, twice a day", "procedure": "(§1) Food and water were supplemented sufficiently. The mice were divided into two groups. […] The mice's body weights were measured every week.\n(§2) The treatments were administrated twice a day.\nLiver concentration of fat metabolites: The mice were sacrificed, and the right lobe of liver was taken. The fat was extract according to the conventional method.\nFor each sample, the concentration of triacylglycol (TG) and total cholesterol (CHOL) were assayed as mentioned above."}, "[2]": {"assay": "Obesity model: lipid tissue weight around the testicle and the kidney", "assay_type": "in vivo, ICR mice", "conditions": "after 4 weeks treatment; GM-020 10^9 CFU/mL or PPA 4.875 mg each time, twice a day", "procedure": "as §1, §2\nDifferences of lipid tissue weight around the testicle: The mice were sacrificed, and the lipid tissues around the testicle were taken and weighted.\nDifferences of lipid tissue weight around the kidney: The mice were sacrificed, and the lipid tissues around the kidney were taken and weighted."}, "[3]": {"assay": "Obesity model: serum concentration of fat metabolites", "assay_type": "in vivo, ICR mice", "conditions": "4 weeks treatment, GM-020 10^9 CFU/mL or PPA 4.875 mg each time, twice a day", "procedure": "as §1, §2\nSerum concentration of fat metabolites: Blood samples were collected from the tails for biochemical assay. The blood samples were stayed at room temperature for 1 hour and centrifuged at 2,500 rpm for 10 minutes. The upper layer of serum was taken for assay.\nThe concentration of triacylglycol (TG) of each group was assayed with TRI[…] LIQUID REAGENT™ (ASK®, Taiwan) and the absorption was measured with Autoanalyzer Hitachi™ 7150. The concentration of total cholesterol (CHOL) was assayed with C[…] REAGENT™ (ASK®, Taiwan), and the absorption was measured with Autoanalyzer Hitachi™ 7150."}, "[4]": {"assay": "Obesity model: body weight of ICR mice on high energy diet", "assay_type": "in vivo", "conditions": "GM-020 10^9 CFU/mL or PPA 4.875 mg each time, twice a day", "procedure": "as §1, §2\nBody weight difference: After treated for 4 weeks, blood samples were collected from the tails for biochemical assay."}, "[5]": {"assay": "Liver and kidney function assays (serum GOT, GPT, creatinine, uric acid)", "conditions": "4 weeks treatment, GM-020 10^9 CFU/mL or PPA 4.875 mg each time, twice a day", "procedure": "Animal model: Male ICR mice were purchased from National Laboratory Animal Center in Taiwan and raised alone in light for 12 hours and in dark for 12 hours at a temperature of 25±1° C. and a humidity of 60±5%. Food and water were supplemented sufficiently. The mice were divided into two groups. One was normal control group and the other was high energy group. The normal control group was fed with normal diet, and the high energy group was fed with high energy diet containing 48% dry feeding stuff, 8% corn oil and 44% condensed milk. The mice's body weights were measured every week. The high energy group was further divided into groups as listed below according treatment: (a) 1× of wood ear, (b) 1× of wood ear combined with GM-020, (c) GM-020, (d) 10× of wood ear, (e) 10× of wood ear combined with GM-020, (f) negative control treated with normal saline, and (g) positive control treated with PPA.\nTreatment with GM-020 and/or wood ear: The normal control group was fed with normal diet continuously. The treatments were administrated twice a day. The dosage of PPA was 4.875 mg each time. In the meal of 1× of wood ear, there was 15.6 mg of wood ear in 3 g diet, and in the meal of 10× of wood ear, there is 156 mg of wood ear in 3 g diet. The dosage of GM-020 was 10^9 CFU/mL.\nLiver and kidney function assays: The blood samples were treated as described above.\nFor each sample, the concentration of creatinine was assayed according to Jaffe Reaction method (Unichem®, Japan) and the absorption was measured with Autoanalyzer Hitachi™ 7150. The concentration of GOT was assayed with GOT (ASAT) IFCC mod™. (HUMAN®, Germany) and the absorption was measured with Autoanalyzer Hitachi™ 7150. The concentration of GPT was assayed with GPT (ALAT) IFCC mod™. (HUMAN®, Germany) and the absorption was measured with Autoanalyzer Hitachi™ 7150. The concentration of uric acid (UA) was assayed according to uricase-peroxidase method (Unichem®, Japan) and the absorption was measured with Autoanalyzer Hitachi™ 7150.\nThe data were analyzed with Kruskal Wallis H Test, and that of the normal control group was taken as a baseline for Dunnett Test."}}}
{"compound": "CC(N)C(O)c1ccccc1", "note": "(centres unmarked) [Positive Control, phenylpropanolamine]", "values": [{"measurement": "CHOL (liver concentration of total cholesterol)", "setting": "[1]", "value": "26.75 ± 1.48"}, {"measurement": "TG (liver concentration of triacylglycol)", "setting": "[1]", "value": "103.58 ± 11.41"}, {"measurement": "lipid tissue weight around the kidney compared with the negative control group", "setting": "[2]", "value": "little difference"}, {"measurement": "lipid tissue weight around the testicle compared with the negative control group", "setting": "[2]", "value": "significant decrease"}, {"measurement": "CHOL (serum concentration of total cholesterol)", "setting": "[3]", "value": "219.08 ± 11.22"}, {"measurement": "HDL (serum concentration of HDL-C)", "setting": "[3]", "value": "123.19 ± 4.20"}, {"measurement": "LDL (serum concentration of LDL-C)", "setting": "[3]", "value": "10.04 ± 0.93"}, {"measurement": "TG (serum concentration of triacylglycol)", "setting": "[3]", "value": "75.83 ± 9.93"}, {"measurement": "body weight compared with the negative control group", "setting": "[4]; after 2 weeks", "value": "significant decrease"}, {"measurement": "body weight compared with the negative control group", "setting": "[4]; after 3 weeks", "value": "significant decrease"}, {"measurement": "Creatinine", "setting": "[5]", "value": "0.56 ± 0.03"}, {"measurement": "GOT", "setting": "[5]", "value": "117.50 ± 12.95"}, {"measurement": "GPT", "setting": "[5]", "value": "47.00 ± 6.17"}, {"measurement": "UA (uric acid)", "setting": "[5]", "value": "2.42 ± 0.50"}]}
